Measured values published in patent US10265274B2, “Formulations and kits for forming bioadhesive matrices” (Technology Innovation Momentum Fund (Israel) Limited …, priority 2012, dated 2019).
Structures can show the parent of a compound that is named as a salt.

Tests used:
[1] = cited from earlier work
Fibroblast cells = assay: Cytotoxicity test, Alamar Blue reduction; assay type: cell-based; conditions: fibroblasts, 24 hours, relative to control cells
Description: Fibroblast cells (14th passage) were thawed and cultured in […] flasks with culture medium at 37° C., humidified atmosphere and 5% CO2. The cells were cultured with modified Eagle's medium supplemented with 10% fetal bovine serum, 1% L-glutamine and 0.1% penicillin-streptomycin-nystatin. At confluence of 70% (at passages 16-19) the cells were separated using incubation for 3 minutes with 1 ml trypsin A, the free cells were added to the culture medium and seeded in a 6 well plate.
When confluence of 70% was reached the medium was replaced by 2 ml of medium containing 10% v/v Alamar blue for 4 hours of incubation. Thereafter, two 100 μL samples were taken from each well and inserted to a 96 well plate. The plate was inserted for analysis at a spectrophotometer (Spectra max 340 PC384, Molecular Devices) at 570 and 600 nm.
Two experiments were carried out, at first each component of the bioadhesive were inserted separately to a test tube containing 4 ml medium and incubated for 24 hours and then that medium was added to the cells instead of the medium containing Alamar Blue. In the second experiment, the medium with Alamar Blue was replaced with 4 ml of fresh medium and 0.1 ml of bioadhesive was added to the medium and incubated for 24 hours followed by another reading using Alamar Blue.
The reduction of Alamar Blue's absorption was calculated using the manufacturer's protocol, namely Alamar Blue reduction=(ε600A^t570−ε570A^t600)/(ε570A^c600−ε600A^c570), wherein ε570 and ε600 are the molar extinction coefficients of oxidized Alamar Blue at 570 nm and 600 nm respectively, A^t and Ac are the absorbance of test and control respectively at 570 nm and 600 nm respectively, whereas the control is taken as the medium with Alamar blue but without any cells.

Structure (SMILES) | isoelectric points (pKa) [1] | cell viability (Fibroblast cells; aqueous drug solution 2% w/v) [%] | cell viability (Fibroblast cells; aqueous drug solution 3% w/v) [%]
CCCCN1CCCCC1C(=O)Nc1c(C)cccc1C (centres unmarked) [bupivacaine, Bupivacaine hydrochloride] | 8.1-8.4 | 67.6 | 58.8
CC(C)Cc1ccc(C(C)C(=O)[O-])cc1.[Na+] (centres unmarked) [ibuprofen, Ibuprofen sodium salt] |  | 93.5 | 79.7
